Data on 2 molecules can be found in patent US6596508B2, “CRE-inducible expression system” (National Research Council of Canada, priority 1999, dated 2003).

For experiment [1], the target named is T1, prostanoid EP2 receptor (Homo sapiens, UniProt P43116).
T1 construct: expressed in transfected cells
Briefly: HEK293-pCRE5/SEAP transfectoma stably transfected with EP2 receptor, response to PGE2 with or without IBMX. Format: cell-based. As to conditions: stable EP2 transfectant, 100 μM IBMX vs absence, 6 h. The method, then:
A HEK293-pCRE5/SEAP transfectoma was stably transfected with the prostanoid EP2 receptor and challenged with PGE2 in the absence (empty circles) or presence (closed circles) of 100 μM IBMX for 6 h and SEAP activity determined (FIG. 5). In this case, EC50 was shifted 10-fold to the left.

For experiment [2], the target named is prostanoid EP2 receptor. As to the kind of experiment: Transient expression and activation of the EP2 receptor in the HEK293-pCRE5/SEAP transfectoma (SEAP reporter). The format is cell-based. The following applies: transiently transfected EP2 receptor, PGE2 challenge for 6 hours, SEAP readout; read-out: estimated EC50. As for the experimental part:
Twenty four hours after transfection with a plasmid containing the prostanoid EP2 receptor (closed symbol) or the empty vector (open symbol), the HEK293-pCRE5/SEAP transfectoma was challenged with PGE2 for 6 hours (FIG. 4). The estimated EC50 was below 1 nM of PGE2.

Experiment [3] concerns HEK293-pCRE5/SEAP transfectoma. As to the kind of experiment: Forskolin-induced SEAP production in stable HEK293-pCRE5/SEAP transfectoma, 50 h. Format: cell-based, human. The method, then: Upper Panel A: Stable HEK293-pCRE5/SEAP transfectoma was stimulated with 20 μM forskolin with or without 100 μM IBMX or 200 μM theophylline for 50 h and SEAP activity was then measured on an aliquot of the supernatant (FIG. 7).

What is called EC50 is the concentration at which the effect is half-maximal.

T1 sequence (P43116 whole entry, species assumed): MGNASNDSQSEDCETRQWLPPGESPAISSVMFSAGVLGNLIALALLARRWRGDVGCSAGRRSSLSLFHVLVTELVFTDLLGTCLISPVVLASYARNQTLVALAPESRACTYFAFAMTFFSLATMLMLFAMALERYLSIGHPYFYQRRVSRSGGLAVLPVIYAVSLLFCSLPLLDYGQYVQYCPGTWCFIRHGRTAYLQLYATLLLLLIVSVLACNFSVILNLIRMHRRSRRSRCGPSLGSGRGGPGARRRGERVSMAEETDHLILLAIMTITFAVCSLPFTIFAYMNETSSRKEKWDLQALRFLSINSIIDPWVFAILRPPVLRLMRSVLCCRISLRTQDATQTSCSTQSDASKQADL

As for `CCCCC[C@H](O)/C=C/[C@H]1[C@H](O)CC(=O)[C@@H]1C/C=C\CCCC(=O)O` [PGE2], the “EC50 shift to the left in presence of IBMX” value on prostanoid EP2 receptor [1] is 10 fold. For the same molecule, the EC50 at prostanoid EP2 receptor [2] is less than 1 nM.
For the molecule `C=C[C@@]1(C)CC(=O)[C@]2(O)[C@@]3(C)[C@@H](O)CCC(C)(C)[C@@H]3[C@H](O)[C@H](OC(C)=O)[C@@]2(C)O1` [forskolin], the “fold-induction of SEAP activity (Panel B, independent experiment)” value in experiment [3] (20 μM forskolin with or without 100 μM IBMX) worked out at 198 fold. In experiment [3] (20 μM forskolin with or without 100 μM IBMX or 200 μM theophylline), the “fold-induction of SEAP activity (Panel A)” value is listed as 128 fold.
